Measurements from US9408921B2, “Antineoplastic hydrogels, and enzyme-instructed preparations thereof” (Brandeis University, priority 2009, dated 2016).
“And” between values parts separate entries of the source, which are not always exact repeats. Equal entries are not always repeated. “Also recorded” adds a separate entry of the source. Where a SMILES comes first, the peptide text is derived from it. [ ]: non-standard residue; d: D form. The star is where a group is joined. Paclitaxel(2'-O-succinyl) = CC(=O)O[C@H]1C(=O)[C@@]2(C)[C@H]([C@H](OC(=O)c3ccccc3)[C@]3(O)C[C@H](OC(=O)[C@H](OC(=O)CCC(=O)*)[C@@H](NC(=O)c4ccccc4)c4ccccc4)C(C)=C1C3(C)C)[C@]1(OC(C)=O)CO[C@@H]1C[C@@H]2O; Acetyl(2-naphthyl) = O=C(Cc1ccc2ccccc2c1)*; pY = N[C@@H](Cc1ccc(OP(=O)(O)O)cc1)C(=O)O

Key:
HeLa cells = experiment: cytotoxicity against HeLa cells
Excerpt: To evaluate the activity of 5a, it was used to treat HeLa cells; paclitaxel (1) was used as the control.

solubility = assay type: physicochemical
[1] = stability in water and in gel state; assay type: physicochemical
Excerpt: Nicolaou, K. C.; Guy, R. K.; Pitsinos, E. N.; Wrasidlo, W. Angew. Chem. Intl. Ed.

In the case of `CC(=O)O[C@H]1C(=O)[C@@]2(C)[C@H]([C@H](OC(=O)c3ccccc3)[C@]3(O)C[C@H](OC(=O)[C@H](O)[C@@H](NC(=O)c4ccccc4)c4ccccc4)C(C)=C1C3(C)C)[C@]1(OC(C)=O)CO[C@@H]1C[C@@H]2O` [Compound 1, Paclitaxel, reference compound], the IC50 (HeLa cells; Homo sapiens, HeLa, 48 h) is reported as 47.3 ± 2.99 nM.
For `NCCCC[C@H](NC(=O)[C@H](Cc1ccccc1)NC(=O)[C@H](Cc1ccccc1)NC(=O)Cc1ccc2ccccc2c1)C(=O)N[C@@H](Cc1ccc(OP(=O)(O)O)cc1)C(=O)O` [Compound 4, NapFFKYp] ({Acetyl(2-naphthyl)}-FFK[pY]-OH), the cytotoxicity in words (HeLa cells; HeLa cells) was “essentially biocompatible; also recorded: very limited toxicity” and the IC50 (HeLa cells; HeLa cells, 48 h, highest concentration tested 500 μM) was over 500000 nM.
With `CC(=O)O[C@H]1C(=O)[C@@]2(C)[C@H]([C@H](OC(=O)c3ccccc3)[C@]3(O)C[C@H](OC(=O)[C@H](OC(=O)CCC(=O)NCCCC[C@H](NC(=O)[C@H](Cc4ccccc4)NC(=O)[C@H](Cc4ccccc4)NC(=O)Cc4ccc5ccccc5c4)C(=O)N[C@@H](Cc4ccc(OP(=O)(O)O)cc4)C(=O)O)[C@@H](NC(=O)c4ccccc4)c4ccccc4)C(C)=C1C3(C)C)[C@]1(OC(C)=O)CO[C@@H]1C[C@@H]2O` [Compound 5a] ({Acetyl(2-naphthyl)}-FFK(Paclitaxel(2'-O-succinyl))[pY]-OH) the IC50 (HeLa cells; HeLa cells, 48 h of incubation) was 9.97 ± 2.05 nM, the solubility (solubility; 100 mM phosphate buffered saline (PBS) solution) was 7600 µg/mL and 4260 µM and the stability in water ([1]; in water, without a phosphatase) was “hardly any dephosphorylation over months”.
For `CC(=O)O[C@H]1C(=O)[C@@]2(C)[C@H]([C@H](OC(=O)c3ccccc3)[C@]3(O)C[C@H](OC(=O)[C@H](OC(=O)CCC(=O)NCCCC[C@H](NC(=O)[C@H](Cc4ccccc4)NC(=O)[C@H](Cc4ccccc4)NC(=O)Cc4ccc5ccccc5c4)C(=O)N[C@@H](Cc4ccc(O)cc4)C(=O)O)[C@@H](NC(=O)c4ccccc4)c4ccccc4)C(C)=C1C3(C)C)[C@]1(OC(C)=O)CO[C@@H]1C[C@@H]2O` [Compound 5b] ({Acetyl(2-naphthyl)}-FFK(Paclitaxel(2'-O-succinyl))Y-OH), the IC50 (HeLa cells; HeLa cells, 48 h of incubation) was 51.4 ± 7.69 nM, the solubility (solubility; in water) was 21.6 µg/mL and 12.7 µM and the “stability in gel state” value ([1]; gel state, mass spectroscopic (MS) analysis) was “stable in gel state over weeks”.
